Here are results for one molecule from patent US20110117106A1, “USES OF CALPAIN INHIBITORS TO INHIBIT INFLAMMATION” (priority 2008, published 2011).

Entries after “also recorded” stand apart in the source; their conditions may differ.

In assay [1] the test system is PMN recruitment into the lung and airway lumen. Kind of assay: Adult C57BL/6 mouse P. aeruginosa infection with bronchoalveolar lavage. The assay is classed as in vivo. The conditions noted are these: adult C57BL/6, i.p. calpeptin, 2 hr infection, versus vehicle. How it is done: To test the effects of calpain inhibition on the transmigration of PMNs into P. aeruginosa-infected airways, bronchoalveolar lavage (BAL) experiments were performed on adult C57BL/6 mice. Mice were treated with i.p. calpeptin or vehicle and intranasally infected with P. aeruginosa for 2 hr. PMNs from BAL or whole-lung suspension were quantified by flow cytometry. Compared to vehicle-treated controls, calpeptin-treated mice had 37% fewer PMNs recruited into the whole lung and 90% fewer into the airway lumen, indicating a more pronounced effect on the epithelial junctions (FIG. 8D). […] Thus, recruitment of PMNs into the murine lung and airway lumen in response to P. aeruginosa is facilitated by calpain activity and its effects on junctional proteins at the mucosal surface.

Assay [2] deals with PMN transmigration across 16HBE airway epithelial monolayers. Kind of assay: PMN transmigration across polarized 16HBE monolayers (myeloperoxidase readout). It counts as cell-based, human. The settings on record: 20 μM calpeptin. From the text: Human PMNs were isolated according to standard techniques from venous blood from healthy consenting adults in accordance with a protocol approved by the Institutional Review Board of Human Subjects at Columbia University (IRB-AAAC5450). PMNs were isolated using dextran sedimentation and Hypaque-Ficoll (Sigma) density-gradient separation, followed by hypotonic lysis of erythrocytes as previously described (Boyum et al, 1968). Purified PMNs were resuspended in HBSS with Ca^2+ and Mg^2+ before use in migration experiments. Migration assays were performed across 16HBE monolayers plated on the underside of 3 μm transwells which were coated with minimal essential media containing 0.01 mg/ml fibronectin, 0.03 mg/ml bovine collagen type I, 0.1 mg/ml BSA. After allowing the cells to adhere overnight, transwells were flipped over and inserted into 24-well plates. 500 μl of media was added to the lower chamber (apical surface of the cell) and 100 μl of media added to the transwell (basolateral surface of the cell). When the cells became confluent, they were polarized with an air liquid interface for 5 days by removing the 500 μl of media in the lower chamber. Selected wells were preincubated for 30 min with 20 μM calpeptin in the apical and basolateral chambers. Monolayers were stimulated with 250 μl heat killed PAO1 (10^7 CFU) or […] […]

The target of assay [3] is T1, recombinant human myeloperoxidase (Homo sapiens, UniProt P05164).
T1 construct: purchased R&D
T1 sequence (P05164 49-745): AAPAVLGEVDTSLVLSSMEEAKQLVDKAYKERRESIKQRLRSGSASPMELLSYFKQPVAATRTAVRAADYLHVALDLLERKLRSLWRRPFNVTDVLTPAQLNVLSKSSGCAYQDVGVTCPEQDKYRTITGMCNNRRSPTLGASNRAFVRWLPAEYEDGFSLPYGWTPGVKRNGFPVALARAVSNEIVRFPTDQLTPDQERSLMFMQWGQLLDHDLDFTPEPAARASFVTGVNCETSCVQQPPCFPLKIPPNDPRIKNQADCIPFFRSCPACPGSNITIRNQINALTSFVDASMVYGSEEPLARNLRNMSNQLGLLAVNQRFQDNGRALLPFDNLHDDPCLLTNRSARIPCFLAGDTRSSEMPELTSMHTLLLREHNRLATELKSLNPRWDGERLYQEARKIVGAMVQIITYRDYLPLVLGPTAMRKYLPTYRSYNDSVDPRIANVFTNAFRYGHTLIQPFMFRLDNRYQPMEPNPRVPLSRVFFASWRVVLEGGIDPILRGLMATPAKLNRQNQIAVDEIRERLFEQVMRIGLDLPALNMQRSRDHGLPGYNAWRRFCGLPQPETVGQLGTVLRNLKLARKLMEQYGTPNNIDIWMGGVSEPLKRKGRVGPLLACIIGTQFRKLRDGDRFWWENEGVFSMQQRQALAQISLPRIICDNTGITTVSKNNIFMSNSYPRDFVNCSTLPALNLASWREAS
Kind of assay: Myeloperoxidase assay with recombinant enzyme. The assay is classed as biochemical. The conditions noted are these: 0.0125 μg/ml enzyme, 20 μM calpeptin.

For the next assay, the system named is PMNs. Kind of assay: PMN migration across a porous Transwell without epithelial cells. The assay is classed as cell-based, human. Also noted: dose or concentration left out as unconfirmed. The settings on record: in response to live PAO1, heat-killed PAO1 or fMLP.
The test system of assay [4] is PMN recruitment into the lung. In words: Neonatal mouse model of intranasal P. aeruginosa PAO1 infection. It counts as in vivo. As for the experimental part: Seven day old C57BL/6 wild type or tlr2^−/− mice (Jackson Laboratories) were intranasally inoculated with 10 μl PAO1 (10^8 CFU) (Tang et al, 1996). Control mice received 10 μl of PBS. Mice were pretreated with 20 mg/kg calpeptin or DMSO in PBS by intraperitoneal (i.p.) route 16 h and 2 h before intranasal inoculation and a third dose was administered by i.p. route 30 min post infection. Lungs were harvested 4 h after infection and cell suspensions used for PMN detection and immunoblotting. For neutrophil detection, lung cell suspensions were double stained with phycoerythrin (PE)-labeled anti-CD45 (to detect leukocytes) and fluorescein isothiocyanate (FITC)-labeled anti-Ly6G antibodies (to detect neutrophils) (BD Pharmingen) and analyzed by flow cytometry with a FACSCalibur using Cell Quest software (Becton Dickinson) (Gomez et al, 2004). Irrelevant, isotype-matched antibodies were used as a control. Cells were gated on the basis of their forward scatter and side scatter profile and analyzed for double expression of CD45 and Ly6G. Immunoblots were performed on 10 μg of protein obtained by lysing lung cells in OGP buffer as described herein for 1HAEo-cells. Mice protocol number AAAA5999 was approved by the Institutional Animal Care and Use Committee at Columbia University.

The next assay deals with PMN myeloperoxidase (Homo sapiens, UniProt P05164). Kind of assay: Myeloperoxidase activity of PMNs. The settings on record: 10^4 PMNs, 20 μM calpeptin.

Turning to `CCCC[C@@H](C=O)NC(=O)[C@H](CC(C)C)NC(=O)OCc1ccccc1` [calpeptin, Z-Leu-Nle-CHO], the “Fewer PMNs recruited into the airway lumen (BAL)” value in assay [1] was determined as 90%. The “Fewer PMNs recruited into the whole lung” value in assay [1] is listed as 37%. Further, the “Heat killed P. aeruginosa PAO1 induced PMN transmigration” value in assay [2] (p<0.001) was “inhibited”. Further, in assay [2] (p<0.05), the “P3C-induced PMN transmigration” value is given as “inhibited”. The “Myeloperoxidase activity of recombinant human myeloperoxidase” value in assay [3] is reported as “nor did calpeptin inhibit; also recorded: not inhibited”. Besides, the results for the “Migration of PMNs across a porous Transwell (without epithelial cells)” value in the assay on PMNs and in the assay with PMNs (listed as Calpeptin) were “no effect; also recorded: not affected” and “did not directly inhibit”, respectively. For the same molecule, in assay [4] (7-day old mice, i.p. calpeptin, 4 hours following intranasal P. aeruginosa, versus vehicle-treated, p<0.05), the “Fewer PMNs recruited into the lung” value amounted to 31%. The “Occludin and E-cadherin cleavage products in whole lung lysates” value in assay [4] (infected wild type mice, i.p. calpeptin versus vehicle) is on record as “substantially decreased”. Moreover, the “PMN recruitment in tlr2−/− animals” value in assay [4] (tlr2−/− pups, calpain inhibition) was “not further diminished”. Moreover, the “Myeloperoxidase activity / production by PMNs” value at PMN myeloperoxidase is reported as “not inhibited”.
